Measurements as given in patent US20110020312A1, “METHODS FOR TREATMENT OF METABOLIC DISORDERS USING EPIMETABOLIC SHIFTERS, MULTIDIMENSIONAL INTRACELLULAR MOLECULES, OR ENVIRONMENTAL INFLUENCERS” (priority 2009, published 2011).

Experiments:
Caspase-3 = assay: Western blot of building block components, Caspase-3 expression in Skmel-28 melanoma cells; assay type: cell-based
Method: (§1) Skmel-28 melanoma cells were cultured in DMEM/F12 supplemented with 5% Fetal Bovine Serum (FBS) and 1× final concentration of Antibiotics. The cells were grown to 85% confluency and treated with building block components for 3, 6, 12 and 24 hours. The cells were then pelleted and a Western blot analysis was performed.
(§2) The test building block components included L-Phenylylalanine, DL-Phenylyalanine, D-Phenylylalanine, L-Tyrosine, DL-Tyrosine, D-Tyrosine, 4-Hydroxy-phenylpyruvate, phenylacetate, 3-methoxy-4-hydroxymandelate (vanillylmandelate or VMA), vanillic acid, 4-hydroxy-benzoate, pyridoxine, panthenol, mevalonic acid, Acetylglycine, Acetyl-CoA, Farnesyl, and 2,3-Dimethoxy-5-methyl-p-benzoquinone.
(§3) In the Western Blot Analysis, the cells were pelleted in cold PBS, lysed, and the protein levels were quantified using a BCA protein assay. The whole cell lysate was loaded in a 4% loading 12% running Tris-HCl gel. The proteins were then transferred to a nitrocellulose paper then blocked with a 5% milk Tris-buffered solution for 1 hour. The proteins were then exposed to primary antibodies (Bcl-2 and Caspase-3) overnight. The nitrocellulose paper was then exposed to Pico Chemilluminescent for 5 min and the protein expression was recorded. After exposure, actin was quantified using the same method. Using ImageJ the levels of protein expression were quantified. A t-Test was used to analyze for statistical significance.

Bcl-2 = assay: Western blot of building block components, Bcl-2 expression in Skmel-28 melanoma cells; assay type: cell-based; parameters: key to Bcl-2 expression: X: a decrease in Bc1-2 expression for most of the concentrations and combinations tested as depicted in the table below; conditions: for Bcl-2 reduction or Caspase-3 increase: 500 nM, 1 μM, 25 μM and 50 μM
Method: as §1, §2, §3

[1] = tested on: neonatal fibroblast cells; assay: Cell proliferation assay (coulter counter); assay type: cell-based; conditions: HB 500 nM, 5 μM, 25 μM, alone or with benzoquinone 25, 50, 100 μM; 24 hours
Method: A cell proliferation assay was also performed on neonatal fibroblast cells. […] The cells were trypsinized and quantified using a coulter counter.

Melanoma cells = assay: Cell proliferation assay (live cell count) of building block combinations; assay type: cell-based
Method: Cell Proliferation Assay of the Combination of 4-Hydroxy-Benzoate with Benzoquinone: This set of experiments used a cell proliferation assay to assess the effect of combining different building block molecules on cell proliferation.
The first study examined the effect of combining 4-Hydroxy-Benzoate with Benzoquinone. Cells were incubated for 48 hours, after which a cell count was performed for the live cells. Each test group was compared to the control, and each combination groups were compared to Benzoquinone control. The compounds were statistically analyzed for the addition of Benzoquinone.
Additional studies were performed testing additional molar ratios. For the first test 4-Hydroxybenzoic were tested at concentrations of 500 nM, 1 μM, and 50 μM. These concentrations were tested in combination with 2,3-Dimethoxy-5-methyl-p-benzoquinone (Benzo). The concentration of Benzo tested were 25 μM, 50 μM, and 100 μM. Melanoma cells were grown to 80% confluency and seeded in 6 well plates at a concentration of 40K cells per well. The cells were treated with CoQ10, 4-Hydroxybenzoate, Benzo, and a combination of 4-Hydroxybenzoate/Benzo.
A T-test was performed with p<0.05 as statistically significant.

[2] = tested on: Succinate Dehydrogenase (SDH) Subunit B; assay: Western blot, Succinate Dehydrogenase B in mitochondrial preparations; assay type: cell-based; conditions: NCIE0808 Mitopreps, 50 uM, 3 h
Method: The above blots were stripped by incubating for 30 minutes with methanol, followed by two 10 minute washes with TBS-T, then 30 minutes of incubation with Stripping buffer at 50 deg C., and followed by two washes with 100 ml or more of TBS-T for 30′ each. The blots were scanned in laser scanner to check for complete stripping. The blots were activated with methanol for 5 seconds, washed with water for 5 minutes, and TBST for 15 minutes. The blots were blocked for 1 hour with 5% blocking reagent in TBS-T at room temperature and then washed 3 times with TBS-T (1×-15′; 2×5′ each) and probed with the primary antibody for PKM2, SDHB or SDHC in 5% BSA in TBS-T by incubation overnight at 4 deg C. with gentle shaking. The primary antibody for SDHC (ABNOVA H00006391-MO2; antimouse) was at 1:500 dilution. The primary antibody for SDHB was from Abcam ab4714-200; antimouse; at 1:1000 dilution. The primary antibody for Pyruvate Kinase M2 (PKM2) was from Novus Biologicals H00005315-D0IP; antirabbit; at 1:500 dilution. After incubation with primary antibodies, the membranes were washed 3 times with TBS-T (1×-15′; 2×5′ each) and probed with the secondary antibody (SDHB & C antimouse; and PKM2 antirabbit; 1:10,000 dilution) for 1 h on the orbital tilting shaker at room temperature. After 1 h of incubation, the blots were washed 3 times with TBS-T (1×-15′; 2×5′ each) and incubated with ECF reagent for 5 minutes and then each blot scanned with 5100 Fuji Laser scanner at 25 uM resolution, 16 bit, green laser, at 400V and at 500 V.

cancer cells = conditions: cited from earlier work
HDFa cells = assay: Extracellular acidification rate (ECAR), SeaHorse XF analyzer; assay type: cell-based, human; conditions: HDFa
Excerpt: Environmental influencers (e.g., MIMs or Epi-shifters) may also be identified by changes in cellular energetics. One example of the measurement of cellular energetics are the real-time measures of the consumption of molecular oxygen and/or the change in pH of the media of a cell culture. For example, the ability of a potential epi-shifter to modulate the metabolic state of a cell may be analyzed using, for example, the XF24 Analyzer (Seahorse, Inc.). This technology allows for real time detection of oxygen and pH changes in a monolayer of cells in order to evaluate the bioenergetics of a cell microenvironment. The XF24 Analyzer measures and compares the rates of oxygen consumption (OCR), which is a measure of aerobic metabolism, and extracellular acidification (ECAR), which is a measure of glycolysis, both key indicators of cellular energetics.
(SeaHorse Biosciences Inc, North Billerica, Mass.).
In this experiment, the OCR and extracellular acidification rate (ECAR) in normal cells lines were obtained in the presence and absence of CoQ10 to determine baseline values. It was observed that in its native nutrient environment, the basal OCR rates in normal cells lines are different, and are usually a function of the physiological roles of the cells in the body.
Table 51 below describes the ECAR values (mpH/min) in HDFa cells in the presence or absence of CoQ10 under normoxic and hypoxic conditions at 5.5 mM and 22 mM glucose.

## NC(Cc1ccccc1)C(=O)O (racemic) [DL-Phenylalanine]
Caspase-3; 3 hours, concentration not stated (5, 25, 100 μM tested)
  Caspase-3 expression: statistically significant increase
Bcl-2; 24 hours, concentration not stated (5, 25, 100 μM tested)
  Bcl-2 expression: statistically significant decrease

## NC(Cc1ccc(O)cc1)C(=O)O (racemic) [DL-Tyrosine]
Caspase-3; 5 μM and 15 μM, 12 hours
  Caspase-3 expression: increase
Bcl-2; 1 μM and 15 μM, 12 hours
  Bcl-2 expression: statistical decrease
Bcl-2; 5 μM, 24 hour (DL-Tyrosine series)
  Bcl-2 expression: statistical decrease

## O=C(O)C(=O)Cc1ccc(O)cc1 [4-Hydroxy-phenylpyruvate]
Caspase-3; 5 μM and 15 μM, 12 hours
  Caspase-3 expression: significant increase
Bcl-2; 5 μM and 15 μM, 24 hours
  Bcl-2 expression: significant reduction

## O=C(O)c1ccc(O)cc1 [4-Hydroxybenzoate]
[1]
  fibroblast cell number (toxicity in normal cells): did not show a significant reduction
Bcl-2; 15 μM, 24 hours
  Bcl-2 expression: significant reduction
Melanoma cells; 48 hours incubation
  cell number vs control: significant decrease
Melanoma cells; treatment medium containing HB (500 nM, 1 μM, 50 μM)
  cell proliferation: significant decrease

## CC(=O)SCCNC(=O)CCNC(=O)[C@H](O)C(C)(C)COP(=O)(O)OP(=O)(O)OC[C@H]1O[C@@H](n2cnc3c(N)ncnc32)[C@H](O)[C@@H]1OP(=O)(O)O [Acetyl-CoA]
Bcl-2
  Bcl-2 reduction or Caspase-3 increase: no significant observed reduction in Bcl-2 or increase in Caspase-3 expression

## CC(=O)NCC(=O)O [Acetylglycine]
Bcl-2; 5 μM and 25 μM, 12 hours
  Bcl-2 expression: significant decrease
Bcl-2; 100 μM, 24 hour
  Bcl-2 expression: significant decrease

## COC1=C(OC)C(=O)C(C/C=C(\C)CC/C=C(\C)CC/C=C(\C)CC/C=C(\C)CC/C=C(\C)CC/C=C(\C)CC/C=C(\C)CC/C=C(\C)CC/C=C(\C)CCC=C(C)C)=C(C)C1=O [Coezyme Q10]
[2]
  Succinate Dehydrogenase B Average Normalized Volume: 634

## N[C@H](Cc1ccccc1)C(=O)O [D-Phenylalanine]
Caspase-3; 5 μM and 100 μM, 6 hours
  Caspase-3 expression: significant increase
Bcl-2; 5 μM and 25 μM, 3 hours
  Bcl-2 expression: significant reduction
Bcl-2; 5 μM, 25 μM and 100 μM, 6 hours
  Bcl-2 expression: significant reduction

## N[C@H](Cc1ccc(O)cc1)C(=O)O [D-Tyrosine]
Caspase-3; 1 μM, 12 and 24 hour
  Caspase-3 expression: increase
Caspase-3; 5 μM, 3, 12 and 24 time periods
  Caspase-3 expression: significantly increased
Bcl-2; 5 μM and 15 μM, 12 and 24 hours
  Bcl-2 expression: reduction

## N[C@@H](Cc1ccccc1)C(=O)O [L-Phenylalanine]
Caspase-3; 25 μM, 12 hours
  Caspase-3 expression: statistically significant increase
Bcl-2; 5 μM, 3 hr
  Bcl-2 expression: X
Bcl-2; 5 μM, 6 hours
  Bcl-2 expression: statistically significant decrease
Bcl-2; 25 μM, 3 hr
  Bcl-2 expression: X
Bcl-2; 25 μM, 6 hr
  Bcl-2 expression: X
Bcl-2; 25 μM, 12 hours
  Bcl-2 expression: statistically significant decrease
Bcl-2; 100 μM, 3 hours and 12 hours incubation
  Bcl-2 expression: statistically significant decrease
Bcl-2; 100 μM, 3 hr
  Bcl-2 expression: X
Bcl-2; 100 μM, 6 hr
  Bcl-2 expression: X
Bcl-2; 100 μM, 24 hr
  Bcl-2 expression: X

## N[C@@H](Cc1ccc(O)cc1)C(=O)O [L-Tyrosine]
Caspase-3; 500 nM, 12 hours
  Caspase-3 expression: statistically significant increase
Bcl-2; 5 μM, 24 hours
  Bcl-2 expression: statistically significant decrease
Bcl-2; 500 μM and 5 μM (so in the source), 24 hours
  Bcl-2 expression: statistically significant decrease

## C[C@@](O)(CCO)CC(=O)O [Mevalonic Acid]
Bcl-2
  Bcl-2 reduction or Caspase-3 increase: no significant reduction in Bcl-2 expression or an increase in Caspase-3 expression

## CC(C)(CO)[C@@H](O)C(=O)NCCCO [Panthenol]
Bcl-2; 25 μM
  Bcl-2 expression: significant reduction

## Cc1ncc(CO)c(CO)c1O [Pyridoxine]
Bcl-2; 24 hours (5, 25, 100 μM tested)
  Bcl-2 expression: significant reduction

## COc1cc(C(O)C(=O)O)ccc1O (stereo not drawn) [VMA, 3-methoxy-4-hydroxymandelate]
Bcl-2; 100 nM to 100 μM
  apoptotic effect (Bcl-2/Caspase-3 Western blot): no statistically significant apoptotic effect
  trend of Bcl-2 expression: downward trend

## COc1cc(C(=O)O)ccc1O [Vanillic Acid, Vanillic acid]
Caspase-3; 15 μM, 24 hours
  Caspase-3 expression: significant increase
Bcl-2; 500 nM and 5 μM, 24 hour
  Bcl-2 expression: significantly reduce
Bcl-2; 15 μM, 3 hours
  Bcl-2 expression: reduction

## C=C1/C(=C\C=C2/CCC[C@]3(C)[C@@H]([C@H](C)CCCC(C)(C)O)CC[C@@H]23)C[C@@H](O)C[C@@H]1O [Vitamin D3, 1α, 25-dihydroxyvitamin D3]
Cancer cells; reported (Deeb et al. 2007)
  expression of anti-apoptotic proteins BCL2 and BCL-XL: repressing the expression
  expression of pro-apoptotic proteins (BAX, BAK and BAD): inducing the expression
  gene transcription of cyclin-dependent kinase inhibitor p21WAFI/CIPI: induce gene transcription
Cancer cells; reported (Masuda and Jones, 2006)
  expression of vascular endothelial growth factor (VEGF): inhibit the expression

## COC1=C(OC)C(=O)C(C/C=C(\C)CC/C=C(\C)CC/C=C(\C)CC/C=C(\C)CC/C=C(\C)CC/C=C(\C)CC/C=C(\C)CC/C=C(\C)CC/C=C(\C)CCC=C(C)C)=C(C)C1=O [compound 31510]
HDFa cells; Hypoxia (5.5 mM), 50 μM
  ECAR: 5 mpH/min
HDFa cells; Hypoxia (5.5 mM), 100 μM
  ECAR: 5 mpH/min
HDFa cells; Hypoxia (22 mM), 50 μM
  ECAR: 6 mpH/min
HDFa cells; Hypoxia (22 mM), 100 μM
  ECAR: 8 mpH/min
HDFa cells; Normoxia (5.5 mM), 50 μM
  ECAR: 6 mpH/min
HDFa cells; Normoxia (5.5 mM), 100 μM
  ECAR: 6 mpH/min
HDFa cells; Normoxia (22 mM), 50 μM
  ECAR: 5 mpH/min
HDFa cells; Normoxia (22 mM), 100 μM
  ECAR: 5 mpH/min
